# What was measured:
# [1] = system: A-SMase; experiment: A-SMase activity in vivo in the cortex after microinjection; parameters: species or system C57/BL6 mice
# Experimental: (§1) Activities of SMase(s) were assayed as described by. Briefly, after treatment, the cells were washed with PBS, harvested in PBS, divided into two halves, and centrifuged. The fraction for N-SMase was resuspended in buffer A (100 mM Tris-HCl, pH 7.4, 0.1% Triton X-100, 1 mM EDTA, and protease inhibitors), and the cell suspension was sonicated and centrifuged at 500×g at 4° C. for 5 min. The supernatant was used as the enzyme source for N-SMase. The reaction mixture contained enzyme preparation in buffer A containing 5 nmol of [^14C] sphingomyelin, 5 nmol of phosphatidylserine, 5 mM dithiothreitol, and 5 mM MgC¾ in a final volume of 100 μl. Similarly, the fraction for A-SMase was resuspended in buffer B (100 mM sodium acetate, pH 5.0, 0.1% Triton X-100, and protease inhibitors). The cell suspension was sonicated and centrifuged. The supernatant was used as the source of A-SMase. The activity of A-SMase was measured in a 100-μl reaction mixture consisting of the enzyme preparation in buffer B and 5 nmol of [^14C] sphingomyelin. The enzyme reaction was initiated by the addition of 50 μl of substrate and stopped by the addition of 1.5 ml of chloroform:methanol (2:1, v/v) and 0.2 ml of water. After vortexing and phase separation, the aqueous phase was removed for counting.
# (§2) Control mice received saline injection. At indicated time points, cortex was dissected out and divided into two halves—one half for measuring activities of N-SMase (FIG. 7B) and A-SMase (FIG. 7C) and the other for assaying ceramide (FIG. 7D). Control (saline—6 h) group served as 100%, and data from other groups were expressed as percentage of control. Results are mean+SD of five different mice (n=5). ^ap<0.05 vs saline—6 h.
# [2] = system: neurons (NeuN-positive cells); experiment: TUNEL/NeuN neuronal apoptosis in vivo in the cortex of Aβ-microinjected mice
# [3] = system: primary human astroglia; experiment: NO synthesis (nitrite, Griess reagent) in primary human astroglia; type: cell-based; conditions: primary human astroglia, level comparable to IL-1β
# Experimental: Synthesis of NO was determined by assay of culture supernatants for nitrite, a stable reaction product of NO with molecular oxygen, using Griess reagent as described.
# After 24 h of stimulation, the concentration of nitrite was measured in supernatants (FIG. 4A) by Griess reagent. […] Cells were treated with ASO/ScO for 40 h followed by stimulation with the combination of fibrillar Aβ and IL-Iβ as above. After 6 h, the expression of iNOS mRNA was analyzed by both semi-quantitative RT-PCR (C) and quantitative real-time PCR (FIG. 4D). The expression of TNF-a, IL-6 and IL-Iβ mRNAs were analyzed by semi-quantitative RT-PCR (FIG. 4E). Results are mean±SD of three different experiments. ^ap<0.001 vs control; ^bp<0.001 vs (Aβ+IL-Iβ).
# [4] = system: N-SMase; experiment: N-SMase activity in vivo in the cortex after microinjection; parameters: species or system C57/BL6 mice
# Experimental: as §1, §2
# [5] = system: ceramide; experiment: Ceramide level in vivo in the cortex (DAG kinase assay); parameters: species or system C57/BL6 mice
# Experimental: After treatment, lipids were extracted from cells as described previously. Ceramide content was quantified using diacylglycerol (DAG) kinase and [γ-^32P] ATP as described earlier. Briefly, dried lipids were solubilized in 20 μl of an octyl β-D-glucoside/cardiolipin solution (7.5% octyl β-D-glucoside, 5 mM cardiolipin in 1 mM diethylenetriaminepentaacetic acid) by sonication in a sonicatorbath. The reaction was then carried out in a final volume of 100 μl containing the 20-μl sample solution, 50 mM imidazole HQ, pH 6.6, 50 mM NaCl, 12.5 mM MgCl2, 1 mM EGTA, 2 mM dithiothreitol, 6.6 μg of DAG kinase, and 1 mM [γ-^32P] ATP (specific activity of 1-5×10^5 cpm/nmol) for 30 min at room temperature. The labeled ceramide-1-phosphate was resolved with a solvent system consisting of methyl acetate:n-propyl alcohol:chloroform:methanol:0.25% KQ in water:acetic acid (100:100:100:40:36:2). […] Quantification of ceramide-1-phosphate was carried out by autoradiography and densitometry scanning using a Fluor Chem 8800 imaging system (Alpha Innotech Corporation). Values are expressed either as arbitrary units (absorbance) or as percent of control, considering control as 100%. […]
# Control mice received saline injection. […] Control (saline—6 h) group served as 100%, and data from other groups were expressed as percentage of control. […]
# [6] = system: iNOS, GFAP and CD11b; experiment: Immunofluorescence of iNOS, GFAP and CD11b in the cortex of Aβ-microinjected mice; type: in vivo, C57/BL6 mice; conditions: cortex, 6 h (and 24 h) of microinjection
# Experimental: […], mice were perfused with 4% paraformaldehyde and their brains were processed for immunohistochemical studies. For double labeling of GFAP with iNOS, sections (6 μm) were incubated with polyclonal anti-GFAP (GFAP: 1000 dilution; Calbiochem) and anti-iNOS (iNOS: 1000 dilution; Calbiochem) for 24 h at 4° C. After three washes in PBST (15 min each), slides were further incubated with Cy5 and Cy2 (Jackson ImmunoResearch Laboratories, Inc.) secondary antibodies for 2 h at room temperature. For negative controls, a set of tissue sections was incubated under similar conditions without the primary antibodies. The samples were mounted and observed under a Bio-Rad MRC1024ES confocal laser scanning microscope.
# After 6 h of Aβ microinjection, mice were perfused and double immunofluorescence for GFAP (green) and iNOS (red) (FIG. 8A) and CD 11b (green) and iNOS (red) (FIG. 8B) was performed.
# [7] = system: primary human astrocytes; experiment: GFAP and iNOS double-labeling of primary human astrocytes stimulated with Aβ peptides; type: cell-based; conditions: peptide stimulation for 24 h
# Experimental: In FIG. 5A, primary astrocytes were stimulated with fibrillar Aβ1-42, oligomeric Aβ1-42 and reverse peptide Aβ42-1 for 24 h followed by double-labeling of GFAP and iNOS. In FIG. 5B, primary human astrocytes seeded in inserts were stimulated with a combination of I μM of oligomeric Aβ1-42 and 10 ng/ml of IL-Iβ in serum free media. […] After 6 h, neuronal apoptosis was monitored by TUNEL. In FIG. 5C, TUNEL-positive cells were counted manually in four different images of each of three coverslips by three individuals blinded to the experiment. Values obtained from the control group (1) served as 100%, and data obtained from other three groups i.e. the oligomeric Aβ-activated astrocytes (OAA) group (2), the ASO-OAA group (3), and the ScO-OAA group (4) was calculated as percent of control accordingly. Results are mean+S.D. of three different experiments. ^ap<0.001 vs control; ^bp<0.001 vs OAA.
# [8] = system: primary human neurons; experiment: TUNEL apoptosis of neurons challenged by (fibrillar Aβ+IL-1β)-activated astrocytes, astrocyte-neuron trans-well; type: cell-based; conditions: neurons pretreated 40 h with 1 μM oligonucleotide; 6 h with (fibrillar Aβ+IL-1β)-activated astrocytes
# Experimental: Primary human astrocytes were grown to confluency on inserts. After 24 h of stimulation by the combination of Aβ (1 μM) and IL-Iβ (10 ng/ml), inserts were washed thrice with HBSS and then placed onto the wells containing primary human neurons. Therefore, in this trans-well model, although neurons and astrocytes face each other, they are separable and the effect of soluble factors released from activated astrocytes on neurons can be studied allowing analysis of neuronal and glial populations separately.
# Fragmented DNA was detected in situ by the terminal deoxynucleotidyltransferase-mediated binding of 3′-OH ends of DNA fragments generated in response to fibrillar Aβ1-42, using a commercially available kit (TdT FragEL™) from Calbiochem. […]
# Primary human neurons were incubated with antisense (ASO) and scrambled oligonucleotides (ScO) against N-SMase (A) and A-SMase (FIG. 2B). After 48 h, neurons were analyzed for protein expression of N-SMase and A-SMase. […] After 6 h of treatment with activated astrocytes, apoptotic events in neurons were detected by TUNEL. In FIG. 2D, TUNEL-positive cells were counted manually in four different images of each of three coverslips by three individuals blinded to the experiment. […] Values obtained from the control group served as 100%, and data obtained in other groups were calculated as percent of control accordingly. […]
# [9] = system: A-SMase; experiment: Western blot of A-SMase protein after antisense knockdown in primary human neurons; type: cell-based; conditions: 48 h with oligonucleotide
# Experimental: Because these ASOs have become a very critical part of our study, the efficacy of N-SMase and A-SMase ASOs in inhibiting the protein expression of N-SMase and A-SMase was checked by western blot. […] Next, the effect of antisense knockdown of neuronal N-SMase and/or A-SMase on activated glia-induced neuronal apoptosis by TUNEL was investigated. […] As evidenced by a decrease In MTT metabolism, activated astroglia reduced neuronal viability (FIG. 2E).
# Primary human neurons were incubated with antisense (ASO) and scrambled oligonucleotides (ScO) against N-SMase (A) and A-SMase (FIG. 2B). After 48 h, neurons were analyzed for protein expression of N-SMase and A-SMase. In FIG. 2C, primary human astrocytes seeded in inserts were stimulated by the combination of Aβ and IL-1β as described above. […] After 6 h of treatment with activated astrocytes, apoptotic events in neurons were detected by TUNEL. In FIG. 2D, TUNEL-positive cells were counted manually in four different images of each of three coverslips by three individuals blinded to the experiment. In FIG. 2E, after 18 h of stimulation, cell viability was examined by the metabolism of MTT and the release of LDH. […] Cell viability was checked by MTT (FIG. 2F) and LDH (FIG. 2G). Values obtained from the control group served as 100%, and data obtained in other groups were calculated as percent of control accordingly. […]
Substance,"activity of A-SMase in the cortex ([1]; 1 μg peptide microinjected, same setting as N-SMase)","increase in the activity of A-SMase after Aβ microinjection ([1]; antisense experiment, Aβ alone)",apoptotic death of neurons in vivo in the cortex after Aβ microinjection ([2]; 24 h after microinjection),apoptosis in neurons (NeuN-positive cells) after Aβ microinjection ([2]; within 6 h of microinjection),production of NO by the stimulus alone [3],"activation of N-SMase in the cortex compared to saline microinjection ([4]; 1 μg peptide, over the time course)","increase in the activity of N-SMase in the cortex ([4]; 6 h of microinjection, 1 μg peptide)","activity of N-SMase in the cortex, in words ([4]; 12 h of microinjection)","increase in the activity of N-SMase in the cortex compared to saline ([4]; 12 h of microinjection, 1 μg peptide)","activity of N-SMase in the cortex, in words ([4]; 24 h of microinjection)","increase in the activity of N-SMase in vivo in the cortex compared to saline ([4]; antisense experiment, Aβ alone)",increase in the ceramide level in the cortex ([5]; after 6 h),increase in the ceramide level in the cortex ([5]; after 12 h),"glial expression of iNOS (GFAP-positive astrocytes, CD11b-positive microglia) and GFAP after Aβ microinjection [6]","glial expression of iNOS (GFAP-positive astrocytes, CD11b-positive microglia) and GFAP after Aβ microinjection ([6]; listed as Aβ)",astroglial iNOS protein and GFAP [7],protection of neurons from activated astrocyte-induced apoptosis (TUNEL) [8],level of A-SMase protein [9]
"fibrillar Aβ1-42: human Aβ peptide (1-42), Bachem, incubated at 50 μM at 37° C. for 5 days",unable to increase,about 35%,markedly induced,unable to induce any apoptosis,capable of inducing,marked increase,More than 3 fold,increased further,more than 300%,decreased,more than 4 fold,about 3 fold,about 4 fold,induced,marked increase,induced the expression of iNOS protein and increased the level of GFAP,–,–
"5′- GACATCTCGGAGCCGGGGCA -3′ (DNA, all phosphorothioate, methylation of C not given here) [ASO against A-SMase, ID; NO.: 14]",–,–,–,–,–,–,–,–,–,–,–,–,–,–,–,–,failed to rescue neurons,suppressed

# Reference: patent US9006205B2, “Antisense oligonucleotides against neutral sphingomyelinase and neutral sphingomyelinase inhibitor GW4869 for degenerative neurological disorders” (Rush University Medical Center, priority 2011, dated 2015)
